Laboratory results published in patent US20230002359A1, “PESTICIDALLY ACTIVE FUSED BICYCLIC HETEROAROMATIC COMPOUNDS” (priority 2019, published 2023).

Experiments:
Type in all cases: in vivo
[1] = tested on: Diabrotica Balteata (Corn Root Worm); experiment: Example B1: Diabrotica balteata (corn root worm), maize sprouts sprayed, L2 larvae; conditions: 96 h, application rate of 200 ppm, 4 days after infestation, L2 larvae, read-out: control in at least one of the two categories (mortality or growth inhibition)
How it was run: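 Spray test: maize sprouts on agar, aqueous dilutions of 10′000 ppm DMSO stock; after drying, 6–10 L2 larvae/well. Read-out at 4 d post-infestation: mortality and growth inhibition vs untreated.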

[2] = tested on: Euschistus heros (Neotropical Brown Stink Bug); experiment: Example B2: Euschistus heros (neotropical brown stink bug), soybean leaves sprayed, N2 nymphs; conditions: 120 h, application rate of 200 ppm, 5 days after infestation, N2 nymphs, read-out: control in at least one of the two categories (mortality or growth inhibition)
Experimental: Soybean leaves on agar in 24-well microtiter plates were sprayed with aqueous test solutions prepared from 10′000 ppm DMSO stock solutions. After drying the leaves were infested with N2 nymphs. The samples were assessed for mortality and growth inhibition in comparison to untreated samples 5 days after infestation.

[3] = tested on: Chilo suppressalis (Striped Rice Stemborer); experiment: Example B3: Chilo suppressalis (striped rice stemborer), artificial diet, L2 larvae; conditions: 144 h, application rate of 200 ppm, 6 days after infestation, L2 larvae, read-out: control in at least one of the three categories (mortality, anti-feedant effect, or growth inhibition)
How it was run: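 Artificial diet treated with aqueous dilutions of DMSO stocks (10'000 ppm stock), dried, then infested with 6-8 L2 larvae per well. Mortality, anti-feeding and growth inhibition scored against untreated samples 6 days after infestation. Control counted when any category exceeds untreated.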

[4] = tested on: Plutella xylostella (Diamond Back Moth); experiment: Example B4: Plutella xylostella (diamond back moth), artificial diet, eggs, 24-well; conditions: 192 h, application rate of 200 ppm, 8 days after infestation, eggs, read-out: control in at least one of the two categories (mortality or growth inhibition)
Experimental: 24-well microtiter plates with artificial diet were treated with aqueous test solutions prepared from 10′000 ppm DMSO stock solutions by pipetting. After drying, Plutella eggs were pipetted through a plastic stencil onto a gel blotting paper and the plate was closed with it. The samples were assessed for mortality and growth inhibition in comparison to untreated samples 8 days after infestation.

[5] = tested on: Spodoptera littoralis (Egyptian Cotton Leaf Worm); experiment: Example B7: Spodoptera littoralis (Egyptian cotton leaf worm), cotton leaf discs sprayed, L1 larvae; conditions: foliar, 72 h, application rate of 200 ppm, 3 days after infestation, L1 larvae, read-out: control in at least one of the three categories (mortality, anti-feedant effect, or growth inhibition)
How it was run: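 Spray application onto agar-supported cotton leaf discs used aqueous solutions derived from 10′000 ppm DMSO stocks. Once dry, discs were infested with five L1 larvae and evaluated after 3 days for mortality, anti-feeding and growth inhibition relative to untreated controls.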

[6] = tested on: Myzus persicae (Green Peach Aphid); experiment: Example B6: Myzus persicae (green peach aphid) intrinsic activity, sucrose solution; conditions: 120 h, test rate of 12 ppm, 5 days after infestation, intrinsic activity, read-out: mortality
Experimental: Test compounds prepared from 10′000 ppm DMSO stock solutions were applied by pipette into 24-well microtiter plates and mixed with sucrose solution. The plates were closed with a stretched Parafilm. A plastic stencil with 24 holes was placed onto the plate and infested pea seedlings were placed directly on the Parafilm. The infested plate was closed with a gel blotting paper and another plastic stencil and then turned upside down. The samples were assessed for mortality 5 days after infestation.

CC(c1ncnn1-c1ccc(C#N)cn1)N(C)c1ncnc2c(OC(F)(F)F)cc(Br)cc12 (stereo not shown) [P.216, 6-[5-[1-[[6-bromo-8-(trifluoromethoxy)quinazo-lin-4-yl]-methyl-amino]ethyl]-1,2,4-triazol-1-yl]pyridine-3-carbonitrile]
≥ 80%: percent control (mortality or growth inhibition) at 200 ppm [1] | percent control (mortality or growth inhibition) at 200 ppm [2] | percent control (mortality, anti-feedant effect or growth inhibition) at 200 ppm [3] | percent control (mortality or growth inhibition) at 200 ppm [4] | percent control (mortality, anti-feedant effect or growth inhibition) at 200 ppm [5]

CC(=O)N(c1ncnc2c(C(F)(F)F)cc(C(F)(F)F)cc12)C(C)c1ncnn1-c1ccc(C#N)cn1 (stereo not shown) [P.259, N-[6,8-bis(trifluoromethyl)quina-zolin-4-yl]-N-[1-[2-(5-cyano-2-pyridyl)-1,2,4-triazol-3-yl]ethyl]acetamide]
≥ 80%: percent control (mortality or growth inhibition) at 200 ppm [1] | percent control (mortality or growth inhibition) at 200 ppm [2] | percent control (mortality, anti-feedant effect or growth inhibition) at 200 ppm [3] | percent control (mortality or growth inhibition) at 200 ppm [4] | percent control (mortality, anti-feedant effect or growth inhibition) at 200 ppm [5]

CC(Nc1ncnc2c(Br)cc(C(F)(F)F)cc12)c1ncnn1-c1ncccn1 (stereo not shown) [P.47, 8-bromo-N-[1-(2-pyrimidin-2-yl-1,2,4-triazol-3-yl)ethyl]-6-(trifluoromethyl)quinazolin-4-amine]
≥ 80%: percent control (mortality or growth inhibition) at 200 ppm [1] | percent control (mortality or growth inhibition) at 200 ppm [2] | percent control (mortality, anti-feedant effect or growth inhibition) at 200 ppm [3] | percent control (mortality or growth inhibition) at 200 ppm [4] | percent control (mortality, anti-feedant effect or growth inhibition) at 200 ppm [5]

COCN(c1ncnc2c(C(F)(F)F)cc(C(F)(F)F)cc12)C(C)c1ncnn1-c1ccc(C#N)cn1 (stereo not shown) [P.7, 6-[5-[1-[[6,8-bis(trifluroomethyl)quina-zolin-4-yl]-(methoxymethyl)amino]ethyl]-1,2,4-triazol-1-yl]pyridine-3-carbonitrile]
≥ 80%: percent control (mortality or growth inhibition) at 200 ppm [1] | percent control (mortality or growth inhibition) at 200 ppm [2] | percent control (mortality, anti-feedant effect or growth inhibition) at 200 ppm [3] | percent control (mortality or growth inhibition) at 200 ppm [4] | percent control (mortality, anti-feedant effect or growth inhibition) at 200 ppm [5]

C[C@@H](c1ncnn1-c1ncccn1)N(C)c1ncnc2c(C(F)(F)F)cc(SC(F)(F)F)cc12 [P.84, N-methyl-N-[(1S)-1-(2-pyrimidin-2-yl-1,2,4-triazol-3-yl)ethyl]-8-(trifluoromethyl)-6-(trifluoromethylsulfanyl) quinazolin-4-amine]
≥ 80%: percent control (mortality or growth inhibition) at 200 ppm [1] | percent control (mortality or growth inhibition) at 200 ppm [2] | percent control (mortality, anti-feedant effect or growth inhibition) at 200 ppm [3] | percent control (mortality or growth inhibition) at 200 ppm [4] | mortality at 12 ppm [6]

CC(c1ncnn1-c1ccc(C#N)cn1)N(Cc1ccccc1)c1ncnc2c(C(F)(F)F)cc(C(F)(F)F)cc12 (stereo not shown) [P.8, 6-[5-[1-[benzyl-[6,8-bis(trifluoromethyl)quina-zolin-4-yl]amino]ethyl]-1,2,4-triazol-1-yl]pyridine-3-carbonitrile]
≥ 80%: percent control (mortality or growth inhibition) at 200 ppm [1] | percent control (mortality or growth inhibition) at 200 ppm [2] | percent control (mortality, anti-feedant effect or growth inhibition) at 200 ppm [3] | percent control (mortality or growth inhibition) at 200 ppm [4] | percent control (mortality, anti-feedant effect or growth inhibition) at 200 ppm [5]

CC(Nc1nccc2c(C(F)(F)F)cc(C(F)(F)F)cc12)c1ncnn1-c1ncccn1 (stereo not shown) [P.83, N-[1-(2-pyrimidin-2-yl-1,2,4-triazol-3-yl)ethyl]-5,7-bis(trifluoromethyl)isoquinolin-1-amine]
≥ 80%: percent control (mortality or growth inhibition) at 200 ppm [1] | percent control (mortality or growth inhibition) at 200 ppm [2] | percent control (mortality, anti-feedant effect or growth inhibition) at 200 ppm [3] | percent control (mortality or growth inhibition) at 200 ppm [4]

C#CCN(c1ncnc2c(C(F)(F)F)cc(C(F)(F)F)cc12)C(C)c1ncnn1-c1ccc(C#N)cn1 (stereo not shown) [P.261, 6-[5-[1-[[6,8-bis(trifluoromethyl)quina-zolin-4-yl]-prop-2-ynyl-amino]ethyl]-1,2,4-triazol-1-yl]pyridine-3-carbonitrile]
≥ 80%: percent control (mortality or growth inhibition) at 200 ppm [1] | percent control (mortality or growth inhibition) at 200 ppm [2] | percent control (mortality, anti-feedant effect or growth inhibition) at 200 ppm [3] | percent control (mortality or growth inhibition) at 200 ppm [4] | percent control (mortality, anti-feedant effect or growth inhibition) at 200 ppm [5]

C[C@@H](c1ncnn1-c1ncccn1)N(C)c1ncnc2c(C(F)(F)F)cc(C(=O)C3CC3)cc12 [P.82, cyclopropyl-[4-[methyl-[(1S)-1-(2-pyrimidin-2-yl-1,2,4-triazol-3-yl)ethyl]amino]-8-(trifluoromethyl)quinazolin-6-yl]methanone]
≥ 80%: percent control (mortality or growth inhibition) at 200 ppm [1] | percent control (mortality or growth inhibition) at 200 ppm [2] | percent control (mortality, anti-feedant effect or growth inhibition) at 200 ppm [3] | percent control (mortality or growth inhibition) at 200 ppm [4] | mortality at 12 ppm [6]

C[C@@H](c1ncnn1-c1ncccn1)N(C)c1ncnc2c(C(F)(F)F)cc(C(F)(F)C3CC3)cc12 [P.276, 6-[cyclopropyl(difluoro)meth-yl]-N-methyl-N-[(1S)-1-(2-pyrimidin-2-yl-1,2,4-triazol-3-yl)ethyl]-8-(trifluromethyl)quinazolin-4-amine]
≥ 80%: percent control (mortality or growth inhibition) at 200 ppm [1] | percent control (mortality or growth inhibition) at 200 ppm [2] | percent control (mortality, anti-feedant effect or growth inhibition) at 200 ppm [3] | percent control (mortality or growth inhibition) at 200 ppm [4] | percent control (mortality, anti-feedant effect or growth inhibition) at 200 ppm [5]

CC(c1nccnc1-c1ncccn1)N(C)c1ncnc2c(C(F)(F)F)cc(C(F)(F)F)cc12 (stereo not shown) [P.107, N-methyl-N-[1-(3-pyrimidin-2-ylpyrazin-2-yl)ethyl]-6,8-bis(trifluoromethyl)quina-zolin-4-amine]
≥ 80%: percent control (mortality or growth inhibition) at 200 ppm [1] | percent control (mortality or growth inhibition) at 200 ppm [2] | percent control (mortality, anti-feedant effect or growth inhibition) at 200 ppm [3] | percent control (mortality or growth inhibition) at 200 ppm [4] | percent control (mortality, anti-feedant effect or growth inhibition) at 200 ppm [5]

C[C@@H](c1ncnn1-c1ccc(C#N)cn1)N(C)c1ncnc2c(C(F)(F)C3CC3)cc(C(F)(F)F)cc12 [P.213, 6-[5-[(1S)-1-[[8-[cyclopropyl(difluoro)meth-yl]-6-(trifluoromethyl)quinazolin-4-yl]-methyl-amino]ethyl]-1,2,4-triazol-1-yl]pyridine-3-carbonitrile]
≥ 80%: percent control (mortality or growth inhibition) at 200 ppm [1] | percent control (mortality or growth inhibition) at 200 ppm [2] | percent control (mortality, anti-feedant effect or growth inhibition) at 200 ppm [3] | percent control (mortality or growth inhibition) at 200 ppm [4] | percent control (mortality, anti-feedant effect or growth inhibition) at 200 ppm [5]

CC(c1ncnn1-c1ncccn1)N(C)c1ncnc2c(Br)cc(C(F)(F)F)cc12 (stereo not shown) [P.71, 8-bromo-N-methyl-N-[1-(2-pyrimidin-2-yl-1,2,4-triazol-3-yl)ethyl]-6-(trifluoromethyl)quinazolin-4-amine]
≥ 80%: percent control (mortality or growth inhibition) at 200 ppm [1] | percent control (mortality or growth inhibition) at 200 ppm [2] | percent control (mortality, anti-feedant effect or growth inhibition) at 200 ppm [3] | percent control (mortality or growth inhibition) at 200 ppm [4] | mortality at 12 ppm [6]

Cc1cnc(-c2ccc(C#N)cn2)c([C@H](C)N(C)c2ncnc3c(C(F)(F)F)cc(C(F)(F)F)cc23)n1 [P.175, 6-[3-[(1S)-1-[[6,8-bis(trifluoromethyl)quina-zolin-4-yl]-methyl-amino]ethyl]-5-methyl-pyraizn-2-yl]pyridine-3-carbonitrile]
≥ 80%: percent control (mortality or growth inhibition) at 200 ppm [1] | percent control (mortality or growth inhibition) at 200 ppm [2] | percent control (mortality, anti-feedant effect or growth inhibition) at 200 ppm [3] | percent control (mortality or growth inhibition) at 200 ppm [4]

CC(c1ncnn1-c1ncc(Br)cn1)N(C)c1ncnc2c(C(F)(F)F)cc(C(F)(F)F)cc12 (stereo not shown) [P.89, N-[1-[2-(5-bromopyrimidin-2-yl)-1,2,4-triazol-3-yl]ethyl]-N-methyl-6,8-bis(trifluoromethyl)quina-zolin-4-amine]
≥ 80%: percent control (mortality or growth inhibition) at 200 ppm [1] | percent control (mortality or growth inhibition) at 200 ppm [2] | percent control (mortality, anti-feedant effect or growth inhibition) at 200 ppm [3] | percent control (mortality or growth inhibition) at 200 ppm [4]

CC(c1nccnc1-n1nccn1)N(CC1CC1)c1ncnc2c(C(F)(F)F)cc(Br)cc12 (stereo not shown) [P.78, 6-bromo-N-(cyclopropylmethyl)-N-[1-[3-(triazol-2-yl)pyrazin-2-yl]ethyl]-8-(trifluoromethyl)quinazolin-4-amine]
≥ 80%: percent control (mortality or growth inhibition) at 200 ppm [1] | percent control (mortality or growth inhibition) at 200 ppm [2] | percent control (mortality, anti-feedant effect or growth inhibition) at 200 ppm [3] | percent control (mortality or growth inhibition) at 200 ppm [4]
